Patent EP0087397A2, “Propionylglycine derivative, process for its preparation and therapeutic compositions which contain it as the active principle” (Farmatis S.r.l., priority 1982, dated 1983)
Counter-ions that a name gives are not always drawn. Like-named read-outs stand apart in the source and are kept apart here.

What was measured:
[1] = test system: carragenin; test: Antiphlogistic activity, carragenin paw test; format: in vivo, rats; conditions: for ED50: Rattus norvegicus, sc, 3 h
Protocol: This was determined on rats by means of the administration of the product,using an esophagus probe, one hour before making a subcutaneous injection of 0.05 ml of 1% carragenin solution in the right hind paw. After three hours, the volume of the treated paw was compared to the left hind paw, using a plethysmograph.

[2] = Mucolytic activity on nonpurulent excreta (in vitro, viscosity); parameters: species or system chronic bronchitis patients; conditions: AC and MP in tamponed solution
Protocol: (§1) The mucolytic compounds under test were incubated for 5 minutes at 25°C under constant agitation, mixing 1 ml of aqueous solution of product, having increasing molar quantities of the product being considered, with 10 ml of mucin. The viscosity was measured both before and after incubation, using an Ostwald viscosimeter with 1.5 mm capillaries. […] Each value represents the average of six readings.
Mucolytic activity on nonpurulent excreta The mucolytic activity was measured using a pool of nonpurulent excreta obtained from chronic bronchitis patients. The excreta was diluted 1:1 with a physiological solution and homogenized for three minutes - using a glass homogenizer - and then filtered through gauze and used immediately. The method used here is the same as described in the previous paragraph. In this case, however, the residual viscosity was determined after 5 minutes at 25°C (a) and after 40 minutes at 37°C (b).

[3] = test system: aerosol histaminic shock; test: Antibronchospasmic activity, aerosol histaminic shock; format: in vivo; conditions: for time for the onset of the convulsions: 0.1 g/kg i.p., histamine aerosol two hours after pretreatment
Source text: […] The time was taken for the onset of the convulsions after having started administering the aerosol.

[4] = Acute toxicity; format: in vivo; conditions: mouse, in vivo, mice, read-out: DL50 (the source's name)
Source text: (§2) The acute toxicity determined in mice is shown by the values in Table 5 below: […]

[5] = test system: bronchial hypersecretion induced in rats using S02; test: In vivo mucolytic activity: bronchial hypersecretion induced by SO2; conditions: for number of rats which developed bronchial obstruction, expressed as a percentage of the animals not protected: oral 0.25 g/kg/die for two weeks, 300 ppm SO2 two hours per day, total 90 hours
Protocol: This was determined by means of bronchial hypersecretion induced in rats using […]. The rats were treated by oral administration of 0.25 g/kg/die of mucolytic product for a period of two weeks, followed by inhalation of 300 ppm of SO2 for two hours per day for a total of 90 hours.

[6] = test system: intrabronchial desquamation and reactive hyperplasia of the mucosa; test: Trophic-protective activity, nebulized CCl4; format: in vivo, rats; conditions: 0.25 g/kg/die orally for ten days, nebulized CCl4, 5 applications of 2 minutes/die
Protocol: This was determined in rats by the administration of 0.25 g/kg/die, orally, of the product for a period of ten days while, contemporaneously, treating with nebulized CCl4 (5 applications of 2 minutes/die).

[7] = test system: DIFCO gastric mucin; test: Mucolytic activity on gastric mucin (in vitro, Ostwald viscosimeter); format: biochemical; conditions: for Residual Viscosity in %: 5 minutes at 25°C, average of six readings, % of initial viscosity
Protocol: The mucolytic activity was measured using DIFCO gastric mucin (10 g dissolved in 100 ml of phyaiological solution).
as §1

[8] = test system: mice; test: Acute toxicity; format: in vivo
Source text: as §2

[9] = test system: rats and dogs; test: Subacute and chronic toxicity, gastric probe; format: in vivo; conditions: subacute 12 weeks in rats; chronic 6 months in rats and dogs, 0.1 - 0.5 g/kg/die; statement also covers fetal toxicity tests
Protocol: The subacute toxicity of the new product being practically the same for either case of oral or endovenous administration, the administration was only done by.means of a gastric probe.
(§3) The subacute toxicity tests were carried out for 12 weeks on the rats, the chronic toxicity on rats and dogs for 6 months (0.1 - 0.5 g/kg/die) and the fetal toxicity tests were carried out on rats (0.1 - 0.5 g/kg/die between the 6th and 16th days gravidity) and on rabbits (0.1 - 0.3 g/kg/die between the 6th and 18th days of gravidity).

[10] = test system: rats, rabbits; test: Fetal toxicity; format: in vivo; conditions: rats 0.1 - 0.5 g/kg/die, 6th to 16th day of gravidity; rabbits 0.1 - 0.3 g/kg/die, 6th to 18th day
Protocol: as §3

[11] = test system: rats; test: Tolerability at the lung level (surfactant, type II pneumocytes) in rats of the chronic toxicity test; format: in vivo; conditions: at termination of chronic treatment
Source text: In order to evaluate the tolerability at the lung level, for the same rats undergoing the chronic toxicity test, a determination of the influence made at the surfactant level was done at the termination of the treatment. A phospholipids analysis was made, obtaining qualitative data by means of TLC chromographic analysis and quantitative data by phosphorous determination. Gas chromographic analysis was made of the fatty acid content in liposomes separated.by centrifuging from the liquid in which the excised lungs had been washed.

[12] = Pharmacokinetics: urinary elimination, titrimetric method; format: in vivo, rats; conditions: for dose excreted at 5 h: rat, urine, 800 mg/kg
Protocol: The pharmcokinetic tests were carried out on rats after having administered 0.8 g/kg of the new product, orally, and using an esophagus probe.
The urinary elimination tests were carried out using the ti- trimetric method. Each sample was treated with an equal volume of 20% HCL, titrating the sulfhydrylic groups with M/100 potassium bromate until the disappearance of the yellow color and calculating the amount of contained new compound (I) by means of a calibrated curve obtained by the same method. The velocity of urinary excretion is maximum within the first two hours after administration. Maximum values obtained after 5 hours amount to about 20% of the amount administered. Administering the same dose (0.8 g/kg) to a rat by means of a rectal suppository of very small dimensions, the cumulative amount in per cent eliminated in the urine within the first five hours is about 12 %.

[13] = test system: chronic bronchitis cases; test: Preliminary clinical tests in chronic bronchitis cases; format: in vivo; conditions: for diminuition of excreta viscosity: 4th-5th day of treatment, cone and plate rotary viscosimeter
Protocol: In the clinical field, preliminary tests were performed with the new compound by giving daily doses of 0.5 g,parenterally, 0.8 g, by aerosol, and 1 g,either orally or rectally, to chronic bronchitis cases. There was a progressive diminuition of excreta viscosity at the 4th-5th day of treatment, 70% in the case of purulent expectoration and 50% in the case of muco- purulent expectoration. The values were measured by means of a cone and plate, rotary viscosimeter. There was an average increase of 20% in vital capacity, 15% in VEMS and a reduction of residual volume of about 20%.
This test proves once more that the new product is well tolerated in comparison with the other compounds having free thiolic action.

[14] = esophagus probe one hour before 0.05 ml 1% carragenin s.c. in right hind paw, paw volume after three hours, read-out: DE50 (the source's name)
[15] = Molar Conc. 0.015, (a) after 5 minutes at 25°C
[16] = Molar Conc. 0.015, (b) after 40 minutes at 37°C
[17] = Molar Conc. 0.03, (a) after 5 minutes at 25°C
[18] = Molar Conc. 0.03, (b) after 40 minutes at 37°C
[19] = Molar Conc. 0.06, (a) after 5 minutes at 25°C
[20] = Molar Conc. 0.06, (b) after 40 minutes at 37°C
[21] = daily 0.5 g parenterally, 0.8 g aerosol or 1 g orally or rectally

For `CC(=O)N[C@@H](CS)C(=O)O` [AC, N-acetylcysteine], the ED50 [1, 14] was 830 mg/kg, the “Residual Viscosity in %” value [2, 15] was 87% and the “Residual Viscosity in %” value [2, 16] was 82%. For the same molecule, the “Residual Viscosity in %” value [2, 17] was 68%, the “Residual Viscosity in %” value [2, 18] was 62% and the “Residual Viscosity in %” value [2, 19] was 40%. For the same molecule, the “Residual Viscosity in %” value [2, 20] was 33%, the “time for the onset of the convulsions” value [3] was 210 s and the LD50 ([4]; ip, i.p) was 400 mg/kg. The “number of rats which developed bronchial obstruction, expressed as a percentage of the animals not protected” value [5] was 16%, the “prevention of intrabronchial desquamation and reactive hyperplasia of the mucosa” value (shortened to “prevention”) [6] was at most 50% and the “Residual Viscosity in %” value ([7]; Molar Conc. 0.015, 15000 µM) was 91%. For the same molecule, the “Residual Viscosity in %” value ([7]; Molar Conc. 0.03, 30000 µM) was 86% and the “Residual Viscosity in %” value ([7]; Molar Conc. 0.06, 60000 µM) was 66%.

`CC(=O)Oc1ccccc1C(=O)O` [ASA, acetylsalicylic acid] gave an ED50 ([1]; read-out: DE50) of 100 mg/kg.

For `NC(CSCC(=O)O)C(=O)O` (stereo not drawn) [CM, S-carboxymetylcystine], the DE50 ([1]; esophagus probe one hour before 0.05 ml 1% carragenin s.c. in right hind paw, paw volume after three hours) was “not measurable”, the “number of rats which developed bronchial obstruction, expressed as a percentage of the animals not protected” value [5] was 29% and the “prevention” value [6] was at most 50%. For the same molecule, the “values lower than those obtained with the MP compound” value ([7]; tests of Tables 1 and 2 (mucin and excreta) repeated, relative to MP) was 30%.

With `O=C(O)CNC(=O)CCS` [MP, beta-mercaptopropionylamidoacetic acid] the DE50 ([1]; esophagus probe one hour before 0.05 ml 1% carragenin s.c. in right hind paw, paw volume after three hours, 180 min) was 785 mg/kg, the “Residual Viscosity in %” value [2, 15] was 82% and the “Residual Viscosity in %” value [2, 16] was 78%. The “Residual Viscosity in %” value [2, 17] was 63%, the “Residual Viscosity in %” value [2, 18] was 56% and the “Residual Viscosity in %” value [2, 19] was 40%. The “Residual Viscosity in %” value [2, 20] was 31%, the “time for the onset of the convulsions” value [3] was 210 s and the DL50 ([8]; e.v.) was 3.10 g/kg. For the same molecule, the DL50 ([8]; i.p) was 1.54 g/kg, the DL50 ([8]; os) was 3.20 g/kg and the “number of rats which developed bronchial obstruction, expressed as a percentage of the animals not protected” value [5] was 16%. For the same molecule, the “prevention” value [6] was at most 50%, the “Residual Viscosity in %” value ([7]; Molar Conc. 0.015, 15000 µM) was 88% and the “Residual Viscosity in %” value ([7]; Molar Conc. 0.03, 30000 µM) was 84%. For the same molecule, the “Residual Viscosity in %” value ([7]; Molar Conc. 0.06, 60000 µM) was 65%.

For `CC(S)C(=O)NCC(=O)O` (stereo not drawn) [MP/A, alpha-mercaptopropionylamidoacetic acid], the ED50 [1, 14] was 780 mg/kg, the “time for the onset of the convulsions” value [3] was 200 s and the LD50 ([4]; ip, i.p) was 1280 mg/kg. The LD50 ([4]; iv, e.v.) was 2240 mg/kg, the LD50 ([4]; po, os) was 2190 mg/kg and the “number of rats which developed bronchial obstruction, expressed as a percentage of the animals not protected” value [5] was 14.5%. For the same molecule, the “prevention” value [6] was at most 50% and the “values obtained compared with the beta isomer (MP)” value ([7]; tests of Tables 1 and 2 (mucin and excreta) repeated) was “substantially the same as those obtained with the beta isomer (MP)”.

In the case of `O=C(O)CNC(=O)CCS` [MPCa, calcium salt of beta-mercapto propionylamidoacetic acid], the tolerability [9] is reported as “Very good tolerability”, the ED50 [1, 14] is reported as 650 mg/kg and the “Residual Viscosity in %” value [2, 15] is reported as 76%. For the same molecule, the “Residual Viscosity in %” value [2, 16] was 71%, the “Residual Viscosity in %” value [2, 17] was 44% and the “Residual Viscosity in %” value [2, 18] was 36%. The “Residual Viscosity in %” value [2, 19] was 32%, the “Residual Viscosity in %” value [2, 20] was 24% and the “time for the onset of the convulsions” value [3] was 250 s. The “increase of time for the onset of the convulsions” value ([3]; 48 hours after administration) was 30%, the LD50 ([4]; ip, i.p) was 1710 mg/kg and the LD50 ([4]; iv, e.v.) was 3470 mg/kg. The LD50 ([4]; po, os) was 3510 mg/kg, the “persistence of the -SE groups in the cells of the bronchial mucosa” value ([5]; D.D.D. coloration) was “almost complete persistence” and the “reduction of calyciform hyperplasia” value ([5]; bronchial mucosa, P.A.S. coloration, less than control group) was 40%. The “number of muciparous cells” value ([5]; bronchial mucosa, histological and histochemical tests) was “significant reduction”, the “number of rats which developed bronchial obstruction, expressed as a percentage of the animals not protected” value [5] was 12.5% and the “prevention” value ([6]; listed as The new compound) was 65%. For the same molecule, the “effects on the mothers and on the characteristics of the offspring” value [10] was “no negative effects”, the “surfactant level (phospholipids, fatty acid content) compared with the control group” value [11] was “No significant differences” and the dose excreted at 5 h ([12]; po, rats, 0.8 g/kg orally, after 5 hours, read-out: urinary elimination, % of the amount administered) was about 20%. For the same molecule, the “time of maximum velocity of urinary excretion” value ([12]; rats, 0.8 g/kg orally) was “two”, the dose excreted at 5 h ([12]; 0.8 g/kg rectal suppository, within the first five hours, read-out: cumulative amount in per cent eliminated in the urine) was about 12% and the “Residual Viscosity in %” value ([7]; Molar Conc. 0.015, 15000 µM) was 83%. For the same molecule, the “Residual Viscosity in %” value ([7]; Molar Conc. 0.03, 30000 µM) was 75%, the “Residual Viscosity in %” value ([7]; Molar Conc. 0.06, 60000 µM) was 59% and the bronchospasmic manifestations ([13]; aerosol treatment, plethysmograph in broncholabile patients) was “no bronchospasmic manifestations were observed”. For the same molecule, the “average increase in VEMS” value [13, 21] was 15%, the “average increase in vital capacity” value [13, 21] was 20% and the “reduction of residual volume” value [13, 21] was “about 20%”. The “diminuition of excreta viscosity” value ([13]; muco-purulent expectoration) was 50% and the “diminuition of excreta viscosity” value ([13]; purulent expectoration) was 70%.
